Key:
[1] = system: PI3K/Akt signaling pathway; assay: Immunoblotting of EGF-stimulated normal human bronchial epithelial cells; assay type: cell-based; conditions: 10 μM artesunate, pretreated 4 h; EGF 5, 15 and 30 min
Experimental: (§1) To determine the effects of artesunate on OVA-specific immune responses in lymphocytes, thoracic lymph node cells were prepared as described (24). Cells were exposed to […] OVA for 72 hours. Concanavalin A (Con A, 10 μg/ml) was used as a positive control. Supernatants from parallel triplicate cultures were analyzed for cytokine levels by ELISA. Normal human bronchial epithelial cells were cultured in optimized bronchial epithelial bulletkit medium with supplements (Lonza, Basel, Switzerland). Cells were pretreated with 10 μM artesunate or vehicle (0.01% DMSO) 4 hours before stimulation with […] epidermal growth factor (EGF). Total and nuclear proteins, and mRNA were extracted from cells at specified time intervals.
(§2) Lung and cell culture protein lysates ([…] per lane) were separated by 10% SDS-PAGE and immunoblots were developed as described (24). Immunoblots were probed with anti-Akt, anti-phospho-Akt (Ser473), anti-tuberin, anti-phosphotuberin (Ser1462), anti-p70S6K, anti-phospho-p70S6K (Ser389), anti-4E-BP1, anti phospho-4E-BP1 (Ser65), and anti-β-actin antibodies (Cell Signaling Technology, Beverly, Mass.). Proteins were separated by 10% SDSPAGE, probed with anti-Akt, anti-phospho-Akt (Ser473), anti-tuberin, antiphospho-tuberin (Ser1462), anti-p 70S6K, anti-phospho-p70S6K (Ser389), anti-4EBP1, and anti-phospho-4E-BP1 (Ser65), and developed by enhanced chemiluminescence reagent. β-actin was used as an internal control. The experiments were repeated for three times. Primers for inflammatory genes are shown in Table 1 and mRNA expression was analyzed as described (24). Nuclear proteins were analyzed for NF-κB DNA-binding activity using TransAM NF-κB transcription factor assay kit (Active Motif, Carlsbad, Calif.). Total mRNA was extracted using TriZol reagent and the PCR products were separated in a 2% agarose gel visualized under UV light. β-actin was used as an internal control. The experiments were repeated for three times

[2] = system: peripheral blood leukocytes; assay: Flow cytometric analysis of peripheral blood leukocytes; assay type: in vivo, mouse; conditions: artesunate-treated vs saline-challenged, OVA-challenged and vehicle control mice; data not shown
Experimental: BAL fluid was collected 24 hours after the last OVA or saline aerosol challenge, and total and differential cell counts were performed. […] We have conducted flow cytometric analysis of peripheral blood leukocytes obtained from saline challenged, OVA-challenged, vehicle control, and artesunate-treated mice.

[3] = system: p65 NF-κB; assay: Nuclear p65 NF-κB DNA-binding activity in lung tissues (TransAM ELISA kit); assay type: in vivo, mouse; conditions: 30 mg/kg; to basal level
Experimental: (§3) Female BALB/c mice, 6 to 8 weeks old (Interfauna, East Yorkshire, UK), were sensitized and challenged with OVA as described (24). Artesunate (3, 10, and 30 mg/kg; Sigma, St. Louis, Mo.) or vehicle (6% dimethyl sulfoxide [DMSO]) in 0.1 ml saline was given by intraperitoneal injections 2 hours before each OVA aerosol challenge. Saline aerosol was used as a negative control. Animal experiments were performed according to the Institutional guidelines for Animal Care and Use Committee of the National University of Singapore.
(§4) Lung and cell culture protein lysates ([…] per lane) were separated by 10% SDS-PAGE and immunoblots were developed as described (24). Immunoblots were probed with anti-Akt, anti-phospho-Akt (Ser473), anti-tuberin, anti-phosphotuberin (Ser1462), anti-p70S6K, anti-phospho-p70S6K (Ser389), anti-4E-BP1, anti phospho-4E-BP1 (Ser65), and anti-β-actin antibodies (Cell Signaling Technology, Beverly, Mass.). […] Primers for inflammatory genes are shown in Table 1 and mRNA expression was analyzed as described (24). Nuclear proteins were analyzed for NF-κB DNA-binding activity using TransAM NF-κB transcription factor assay kit (Active Motif, Carlsbad, Calif.). […]

[4] = system: human rheumatoid arthritis fibroblast-like synoviocytes; conditions: TNF-α-stimulated; cited from earlier work
[5] = system: p65 NF-κB; assay: p65 NF-κB DNA-binding activity in EGF-stimulated normal human bronchial epithelial cells; assay type: cell-based; conditions: 10 μM artesunate; EGF 30 min
Experimental: as §1, §4

[6] = system: normal human bronchial epithelial cells; assay: Cytokine mRNA expression in EGF-stimulated normal human bronchial epithelial cells; assay type: cell-based; conditions: 10 μM artesunate; EGF 12 hours
Experimental: as §1, §2

[7] = system: PI3K/Akt signaling pathway; assay: TNF-α-induced signalling in normal human bronchial epithelial cells; assay type: cell-based
[8] = system: OVA-induced inflammatory gene expression in lung tissues; assay: Lung mRNA expression of inflammatory genes (RT-PCR); assay type: in vivo, mouse; conditions: 30 mg/kg pretreatment; OVA-challenged mice
Experimental: as §3, §2

[9] = system: PI3K/Akt signaling pathway; assay: Immunoblotting of PI3K/Akt phosphorylation cascade in lung tissues; assay type: in vivo, mouse; conditions: 30 mg/kg; OVA-challenged mice; to the basal levels
Experimental: as §3, §2

[10] = system: phosphoinositide 3-kinase (PI3K)/Akt signaling pathway; conditions: cited from earlier work
[11] = system: OVA-induced inflammatory cell recruitment in BALB/c mice; assay: BAL fluid total and differential cell counts in OVA-induced mouse asthma model; assay type: in vivo
Experimental: as §3, with “Singapore. Mice were anesthetized 24 hours after the last aerosol challenge and bronchoalveolar lavage (BAL) was performed as described (24). BAL fluid total and differential cell counts, and cytokine and chemokine levels were determined as described (24). Blood was collected by cardiac puncture, and serum levels of total IgE and OVA-specific IgE, IgG1, and IgG2a levels were determined as described (24).” for “Singapore.”

[12] = system: macrophages; conditions: cited from earlier work
[13] = system: OVA-induced AHR in BALB/c mice; assay: Airway hyperresponsiveness (AHR) to methacholine in mechanically ventilated mice; assay type: in vivo, mouse; conditions: 30 mg/kg; OVA-challenged mice; methacholine 0.5-8.0 mg/ml
Experimental: Female BALB/c mice, 6 to 8 weeks old (Interfauna, East Yorkshire, UK), were sensitized and challenged with OVA as described (24). Artesunate (3, 10, and 30 mg/kg; Sigma, St. Louis, Mo.) or vehicle (6% dimethyl sulfoxide [DMSO]) in 0.1 ml saline was given by intraperitoneal injections 2 hours before each OVA aerosol challenge. Saline aerosol was used as a negative control. […] Mice were anesthetized and tracheotomy was performed as described (24). The trachea was intubated with a cannula that was connected to the pneumotach, ventilator and nebulizer. Airway resistance (RI) and dynamic compliance (Cdyn) in response to increasing concentrations of nebulized mechacholine (0.5-8.0 mg/ml) were recorded using a whole-body plethysmograph chamber (Buxco, Sharon, Conn.) as described (24). Results are expressed as a percentage of the respective basal values in response to phosphate-buffered saline (PBS).

[14] = system: thoracic lymph node cells; assay: OVA-specific responses in thoracic lymph node cultures from treated mice; assay type: cell-based, mouse
Experimental: as §1

[15] = system: OVA-induced serum Ig production in BALB/c mice; assay: Serum Ig levels by ELISA in OVA-induced mouse asthma model; assay type: in vivo
Experimental: as §3, with “Singapore. Mice were anesthetized 24 hours after the last aerosol challenge and bronchoalveolar lavage (BAL) was performed as described (24). BAL fluid total and differential cell counts, and cytokine and chemokine levels were determined as described (24). Blood was collected by cardiac puncture, and serum levels of total IgE and OVA-specific IgE, IgG1, and IgG2a levels were determined as described (24).” for “Singapore.”

[16] = system: OVA-induced BAL fluid cytokine and chemokine levels in BALB/c mice; assay: BAL fluid cytokine and chemokine levels by ELISA in OVA-induced mouse asthma model; assay type: in vivo
Experimental: as §3, with “Singapore. Mice were anesthetized 24 hours after the last aerosol challenge and bronchoalveolar lavage (BAL) was performed as described (24). BAL fluid total and differential cell counts, and cytokine and chemokine levels were determined as described (24). Blood was collected by cardiac puncture, and serum levels of total IgE and OVA-specific IgE, IgG1, and IgG2a levels were determined as described (24).” for “Singapore.”

[17] = system: OVA-induced lung tissue eosinophilia and mucus hypersecretion in BALB/c mice; assay: Histologic analysis of lung tissue (H&E, PAS) in OVA-induced mouse asthma model; assay type: in vivo; conditions: 30 mg/kg, 24 h after last OVA challenge
Experimental: Female BALB/c mice, 6 to 8 weeks old (Interfauna, East Yorkshire, UK), were sensitized and challenged with OVA as described (24). Artesunate (3, 10, and 30 mg/kg; Sigma, St. Louis, Mo.) or vehicle (6% dimethyl sulfoxide [DMSO]) in 0.1 ml saline was given by intraperitoneal injections 2 hours before each OVA aerosol challenge. Saline aerosol was used as a negative control. Animal experiments were performed according to the Institutional guidelines for Animal Care and Use Committee of the National University of Singapore. Lungs were fixed in 10% neutral formalin, paraffinized, cut into 5-μm sections, and stained with hematoxylin and eosin (H&E) for examining cell infiltration and with periodic acid-Schiff stain (PAS) for measuring mucus production. Quantitative analysis was performed blinded as described (24). Quantitative analyses of inflammatory cell infiltration and mucus production in lung sections were performed as previously described (24). […] To determine the extent of mucus production, goblet cell hyperplasia in the airway epithelium was quantified blind using a 5-point grading system: 0, no goblet cells; 1, <25%; 2, 25-50%; 3, 50-75%; 4, >75%.

[18] = 3, 10 and 30 mg/kg i.p. 2 h before each OVA challenge, 24 h after last challenge, dose-dependent, vs DMSO vehicle control
[19] = mice pretreated with 30 mg/kg, cells cultured 72 h with OVA, vs DMSO
[20] = 3, 10, 30 mg/kg, dose-dependent, to a lesser extent than IL-13 and eotaxin, vs DMSO control
[21] = 3, 10, 30 mg/kg, dose-dependent, vs DMSO control

SMILES: C[C@H]1[C@H](OC(=O)CCC(=O)O)O[C@@H]2O[C@@]3(C)CC[C@H]4[C@H](C)CC[C@@H]1[C@@]24OO3 [Artesunate, artesunate]
- EGF-induced phosphorylation of 4E-BP1 [1]: markedly inhibited
- EGF-induced phosphorylation of Akt [1]: markedly inhibited
- EGF-induced phosphorylation of p70S6K [1]: markedly inhibited
- EGF-induced phosphorylation of tuberin [1]: markedly inhibited
- percentages of CD3+, CD4+, CD8+ T cells, B cells, NK cells, neutrophils and monocytes in peripheral blood [2]: Similar
- OVA-induced NF-κB transactivation (p65 DNA-binding) in lung tissues [3]: significantly suppressed
- production of IL-1β [4]: block
- production of IL-6 [4]: block
- production of IL-8 [4]: block
- EGF-induced NF-κB transactivation (DNA binding activity) [5]: markedly inhibited
- EGF-induced up-regulation of IL-6 mRNA expression [6]: noticeably blocked
- EGF-induced up-regulation of IL-8 mRNA expression [6]: noticeably blocked
- EGF-induced up-regulation of MCP-1 mRNA expression [6]: noticeably blocked
- EGF-induced up-regulation of RANTES mRNA expression [6]: noticeably blocked
- TNF-α-induced NF-κB DNA binding activity [7]: inhibited
- TNF-α-induced phosphorylation of Akt [7]: inhibited
- TNF-α-induced phosphorylation of p70 S6 kinase [7]: inhibited
- TNF-α-induced phosphorylation of phosphoinositide 3-kinase (PI3K) [7]: inhibited
- lung AMCase mRNA level [8]: strong suppression
- lung E-selectin mRNA level [8]: strong suppression
- lung ICAM-1 mRNA level [8]: strong suppression
- lung IL-17 mRNA level [8]: strong suppression
- lung IL-33 mRNA level [8]: strong suppression
- lung Muc5ac mRNA level [8]: strong suppression
- lung TSLP mRNA level [8]: strong suppression
- lung VCAM-1 mRNA level [8]: strong suppression
- lung YKL-40 mRNA level [8]: strong suppression
- lung Ym-2 mRNA level [8]: strong suppression
- lung iNOS mRNA level [8]: strong suppression
- phosphorylation of 4E-BP1 in lung tissues [9]: markedly reduced
- phosphorylation of Akt in lung tissues [9]: markedly reduced
- phosphorylation of p70S6K in lung tissues [9]: markedly reduced
- phosphorylation of tuberin in lung tissues [9]: markedly reduced
- activity against the PI3K/Akt signaling pathway [10]: strong inhibitory activity
- eosinophil count in BAL fluid [11, 18]: drastically decreased
- total cell count in BAL fluid [11, 18]: drastically decreased
- lymphocyte count in BAL fluid ([11]; OVA-challenged mice): significant drop
- lipopolysaccharide-induced production of IL-6 [12]: inhibits
- lipopolysaccharide-induced production of TNF-α [12]: inhibits
- lipopolysaccharide-induced production of nitric oxide (NO) [12]: inhibits
- expression of TLR9 ([12]; lipopolysaccharide-induced): inhibits
- expression of toll-like receptor 4 (TLR4) ([12]; lipopolysaccharide-induced): inhibits
- dynamic compliance (Cdyn) in response to methacholine aerosol [13]: restored
- lung/airway resistance (RI) in response to methacholine aerosol [13]: dramatically reduced
- in vitro OVA-specific IL-4 production [14, 19]: significantly (P<0.05) lowered
- in vitro OVA-specific IL-5 production [14, 19]: significantly (P<0.05) lowered
- in vitro OVA-specific IL-13 production [14, 19]: significantly (P<0.05) lowered
- in vitro OVA-specific IFN-γ production ([14]; mice treated with 30 mg/kg, cells cultured 72 h with OVA): elevated
- Con A-induced production of IL-4, IL-5, IL-13 and IFN-γ ([14]; parallel cultures, Con A 10 μg/ml, data not shown): not affected
- serum total IgE level ([15]; 24 h after last OVA aerosol challenge): no effect
- serum OVA-specific IgG2a level ([15]; OVA-challenged mice): no effects
- serum OVA-specific IgE level ([15]; even at the lowest dose (3 mg/kg)): strongly suppressed
- serum OVA-specific IgG1 level ([15]; suppressed to a lesser extent than OVA-specific IgE): significant effects at higher dose
- IL-4 level in BAL fluid [16, 20]: reduced
- IL-5 level in BAL fluid [16, 20]: reduced
- IL-13 level in BAL fluid [16, 21]: drastically reduced
- eotaxin level in BAL fluid [16, 21]: drastically reduced
- IFN-γ level in BAL fluid ([16]; 10 and 30 mg/kg): up-regulated
- OVA-induced mucus hypersecretion (PAS) [17]: significantly halted
- eosinophil-rich leukocyte infiltration in lung tissue (H&E) ([17]; vs DMSO control): markedly diminished

Source: patent US8293783B2, “Use of artemisinin derivatives for the treatment of asthma and chronic obstructive pulmonary disease (COPD)” (National University of Singapore, priority 2009, dated 2012)
